One assay concerns M. pnumoniae Mac. Nature of the assay: Anti-mycoplasmal activity (MIC), agar-dilution method. Type of assay: cell-based, Mycoplasma pneumoniae. The settings on record: Mycoplasma; agar dilution; M. pnumoniae Mac; read-out: MIC. On the procedure: (§1) The minimum growth inhibitory concentrations (MIC; μg/ml) of the test chemicals were measured by the agar-dilution method.
(§2) (1) Preparation of a mycoplasma suspension for inoculation
(§3) A stored frozen suspension of mycoplasma (0.2 to 0.3 ml) was inoculated in 2 to 3 ml of a preculture medium to be described later. It was serially diluted tenfold until the dilution ratio reached 10,000 times. These diluted solutions were cultivated at 37° C. for 2 to 7 days. A culture having the highest dilution ratio was selected from those cultures in which a color change of the media was noted as a result of mycoplasma growth. It was diluted to 100 times with the preculture medium to prepare a mycoplasma suspension for inoculation.
(§4) The following preculture media were used.
For Mycoplasma pneumoniae and Acholeplasma laidlawii, Chanock liquid medium containing 0.5% glucose (pH 7.8) [Library of Bacteriology 2, "Procedures for Isolation and Identification of Human, Animal and Plant Mycoplasmas", edited by Japanese Society for Bacteriology, page 8 (1982), Saikon Publishing Co.] was used.
(§5) (2) Preparation of agar plates containing the test chemicals
(§6) A 1,000 μg/ml aqueous solution of each test chemical was prepared (a difficultly-soluble chemical was dissolved by adding an equimolar amount of sodium hydroxide; the same applies hereinafter). The solution was used as a base solution and its twofold serial dilutions were prepared. The diluted solutions were pipetted on plastic petri dishes each in an amount of 1 ml. The Chanock agar medium (for Mycoplasma hyorhinis, 0.5% mucin was further added) described at page 9 of the above cited "Procedures for Isolation and Identification of Human, Animal and Plant Mycoplasmas" was heated and kept at 55° C. and put in an amount of 9 ml in each of the petri dishes containing the test chemicals and fully mixed with the test chemicals to prepare agar plates containing the test chemicals.
(§7) The mycoplasma suspension for inoculation prepared by the procedure described in section (1) was inoculated in an amount of about 3 microliters on each of the chemical-containing agar plates by means of a Cathra-replicator (3 mm pin). The plates on which Mycoplasma pneumoniae, Mycoplasma arginini, and Acholeplasma laidlawii and Mycoplasma hyorhinis were inoculated were tightly packed in a plastic bag together with the plasic petri dishes including water-immersed absorbent cotton. Mycoplasma pneumoniae was aerobically cultivated at 37° C. under highly humid conditions for 7 days; and Mycoplasma arginini and Acholeplasma laidlawii, for 2 days. The other mycoplasma species were cultivated anaerobically for 2 days by using a GasPak anaerobic system (BBL). After the cultivation, growth of mycoplasma were observed under an OLYMPUS microscope (20-100 X). The lowest concentration of the test chemical at which no growth of mycoplasma was noted is defined as MIC.

The test system of the next assay is M. orale CH19299. The assay is described as above. Format: cell-based, Mycoplasma orale. The settings on record: Metamycoplasma orale; agar dilution; M. orale CH19299; read-out: MIC. The procedure: as §1, §2, §3, §4
For other mycoplasma species, Chanock liquid medium (pH 6.8) containing 0.2% arginine was used.
as §5, §6, §7
(In general: Agar dilution tests growth on a series of plates holding different concentrations.)

A further assay deals with M. orale CH-19299. Nature of the assay: Anti-mycoplasmal activity (MIC, MMC), liquid dilution method. Format: cell-based, Mycoplasma orale. The settings on record: Metamycoplasma orale, liquid dilution, M. orale CH-19299; for MBC: CH19299, 120 h, read-out: MMC; for MIC: CH19299, read-out: MIC. On the procedure: (§8) The minimum growth inhibitory concentration (MIC, μg/ml) and minimum mycoplasmacidal concentration (MMC, μg/ml) of test chemicals were measured by the liquid dilution method. The method of measuring MIC in this example differs from that used in Test Example 1.
(§9) A 1,000 μg/ml aqueous solution of a test chemical was prepared, and diluted to 5 times with a preculture medium. The dilution (200 μg/ml) was serially diluted twofold with the same medium in a 8-well reservoir. Fifty microliters of each diluted solution was distributed in the wells of a microplate. A well to which no test chemical was added was used as a control.
(§10) A mycoplasma suspension for inoculation prepared as in Test Example 1 was pipetted in an amount of 50 microliters to each of the wells. The microplates were sealed by a plate seal, shaken by a micromixer, and cultivated at 37° C. for 5 days. In the control to which no test chemical was added, color change of the medium by the growth of mycoplasma was observed after two days from the start of the cultivation. At this time, 3 microliters of the liquid culture was inoculated in drug-free Chanock agar medium by using a Cathra-replicator. The liquid culture and the agar medium were further cultivated at 37° C. for 3 days (anaerobically in the case of M. orale, and aerobically in the case of A. laidlawii and M. arginini). MIC and MMC were determined from the results of observation on the 5th day. MIC was defined as the lowest concentration of the test chemical at which growth of mycoplasma in the drug-containing liquid medium was not noted, and MMC, as that in the drug-free agar medium.

A further assay has as its system A. laidlawii PG-8. The assay is described as above. Type of assay: cell-based. The settings on record: Acholeplasma laidlawii, liquid dilution, A. laidlawii PG-8; for MBC: PG8, 120 h, read-out: MMC; for MIC: PG8, read-out: MIC. The procedure: as §8, §9, §10

In brackets after ≈: the same amount, converted by molar mass.

For `CC1CN(c2c(F)c(N)c3c(=O)c(C(=O)O)cn(C4CC4)c3c2F)CCN1` (stereo not drawn) [Compound 1], the MIC is 0.025 µg/mL (≈ 0.0661 µM) in the assay on M. pnumoniae Mac, 0.2 µg/mL (≈ 0.529 µM) in the assay with M. orale CH19299, 0.39 µg/mL (≈ 1.03 µM) with M. orale CH-19299 and 0.2 µg/mL (≈ 0.529 µM) in the assay on A. laidlawii PG-8. In addition, the MBC worked out at 0.39 µg/mL (≈ 1.03 µM) with M. orale CH-19299 and 0.2 µg/mL (≈ 0.529 µM) with A. laidlawii PG-8.

Turning to `CN(C)c1ccc(O)c2c1C[C@H]1C[C@H]3[C@H](N(C)C)C(O)=C(C(N)=O)C(=O)[C@@]3(O)C(O)=C1C2=O` [Compound 3, minocycline], the MIC turned out to be 0.78 µg/mL (≈ 1.7 µM) in the assay on M. pnumoniae Mac, 0.1 µg/mL (≈ 0.219 µM) in the assay with M. orale CH19299, 0.39 µg/mL (≈ 0.852 µM) with M. orale CH-19299 and 0.2 µg/mL (≈ 0.437 µM) with A. laidlawii PG-8. Moreover, the MBC was 25 µg/mL (≈ 54.6 µM) in the assay on M. orale CH-19299 and above 100 µg/mL in the assay on A. laidlawii PG-8.

As to `NCC1CN(c2c(F)c(N)c3c(=O)c(C(=O)O)cn(C4CC4)c3c2F)CCO1` (stereo not drawn) [Compound A, 5-amino-7-(2-aminomethylmorpholino)-1-cyclopropyl-6,8-difluoro-1,4-dihydro-4-oxoquinoline-3-carboxylic acid], the MIC in the assay with M. pnumoniae Mac was found to be 0.0125 µg/mL (≈ 0.0317 µM); in the assay on M. orale CH19299, 0.05 µg/mL (≈ 0.127 µM); with M. orale CH-19299, 0.05 µg/mL (≈ 0.127 µM); in the assay on A. laidlawii PG-8, 0.0125 µg/mL (≈ 0.0317 µM). Also, the MBC with M. orale CH-19299 was found to be 0.05 µg/mL (≈ 0.127 µM); with A. laidlawii PG-8, 0.0125 µg/mL (≈ 0.0317 µM).

Usually MIC stands for the lowest concentration that inhibits growth of the organism.

The values are drawn from patent publication US5051419A, “Prevention or elimination of mycoplasma contamination of animal or plant cell cultures” (Dainippon Pharmaceutical Co., Ltd., priority 1988, dated 1991).
